What was measured:
[1] = Dickins et al., J. Am. Chem. Soc., 2002; cited from earlier work
[2] = system: GMP; assay: Stern-Volmer time-delayed luminescence quenching titration with GMP; assay type: binding; conditions: excitation 346 nm, time-delay 0.1 ms, probe 10 μM, water, Tris 10 mM, pH 7.0, 20° C., n=3, emission integrated 450-650 nm (Tb) or 550-750 (Eu)
Experimental: (§1) Unless otherwise noted, starting materials were obtained from commercial suppliers and used without further purification. Water was deionized and further purified by a Millipore cartridge system (resistivity 1.8×10^7Ω). All organic extracts were dried over anhydrous MgSO4 and solvents were removed with a rotary evaporator. Flash chromatography was performed on Salicycle Silica Gel (230-400 mesh) or Brockmann activated aluminum oxide (neutral, 60 mesh). ^1H NMR spectra were recorded on a Varian 300 or Varian 500 at 300 MHz or 500 MHz, respectively, and ^13C NMR spectra on a Varian 300 at 75 MHz; the residual solvent peak was used as an internal reference. Data for ^1H NMR are recorded as follows: chemical shift (δ, ppm), multiplicity (s, singlet; br s, broad singlet; d, doublet, t, triplet; q, quartet; m, multiplet), integration, coupling constant (Hz). Data for ^13C NMR are reported in terms of chemical shift (δ, ppm). Mass spectra (LR=lo2w resolution; HR=high resolution; MS-ESI=electrospray mass spectrometry) were recorded on a Bruker BioTOF II. Purity of lanthanide complexes was evaluated by high performance liquid chromatography (HPLC) using a Varian Microsorb 300-5 C18 250 mm×4.6 mm at a flow rate was 1.0 mL/min (see supporting information for spectra and solvent gradients). UV-Vis data was obtained on a Cary Bio 100 UV-Vis Spectrophotometer. Data was collected over the range of 200-800 nm. Fluorescence data was acquired on a Varian Cary Eclipse Fluorescence Spectrophotometer using a quartz cell with a path length of 10 mm, excitation slit width of 5 nm and emission slit width of 5 nm at T=20° C. Solutions were not degased prior to measurement of their luminescence spectra and lifetimes.

[3] = system: UDP; assay: Stern-Volmer time-delayed luminescence quenching titration with UDP; assay type: binding; conditions: excitation 346 nm, time-delay 0.1 ms, probe 10 μM, water, Tris 10 mM, pH 7.0, 20° C., n=3, emission integrated 450-650 nm (Tb) or 550-750 (Eu)
Experimental: as §1

[4] = system: CDP; assay: Stern-Volmer time-delayed luminescence quenching titration with CDP; assay type: binding; conditions: excitation 346 nm, time-delay 0.1 ms, probe 10 μM, water, Tris 10 mM, pH 7.0, 20° C., n=3, emission integrated 450-650 nm (Tb) or 550-750 (Eu)
Experimental: as §1

[5] = system: CMP; assay: Stern-Volmer time-delayed luminescence quenching titration with CMP; assay type: binding; conditions: excitation 346 nm, time-delay 0.1 ms, probe 10 μM, water, Tris 10 mM, pH 7.0, 20° C., n=3, emission integrated 450-650 nm (Tb) or 550-750 (Eu)
Experimental: as §1

[6] = system: UTP; assay: Stern-Volmer time-delayed luminescence quenching titration with UTP; assay type: binding; conditions: excitation 346 nm, time-delay 0.1 ms, probe 10 μM, water, Tris 10 mM, pH 7.0, 20° C., n=3, emission integrated 450-650 nm (Tb) or 550-750 (Eu)
Experimental: as §1

[7] = system: CTP; assay: Stern-Volmer time-delayed luminescence quenching titration with CTP; assay type: binding; conditions: excitation 346 nm, time-delay 0.1 ms, probe 10 μM, water, Tris 10 mM, pH 7.0, 20° C., n=3, emission integrated 450-650 nm (Tb) or 550-750 (Eu)
Experimental: as §1

[8] = system: UMP; assay: Stern-Volmer time-delayed luminescence quenching titration with UMP; assay type: binding; conditions: excitation 346 nm, time-delay 0.1 ms, probe 10 μM, water, Tris 10 mM, pH 7.0, 20° C., n=3, emission integrated 450-650 nm (Tb) or 550-750 (Eu)
Experimental: as §1

[9] = system: PKAc, the catalytic domain of protein kinase A; assay: Continuous monitoring of ATP to ADP conversion during phosphorylation of KRRWSAP-NH2 by PKAc; assay type: biochemical; conditions: both probes 10 μM, PKAc 1 μM, peptide 1.5 mM, ATP 1 mM, 37° C., 0-6 hours; Tb at 490 and 545 nm, Eu at 688 and 700 nm
Experimental: FIG. 29 illustrates an exemplary embodiment of continuous monitoring of ATP to ADP conversion during enzymatic phosphorylation of the peptide KRRWSAP-NH2 by its kinase PKAc. Experimental conditions: [Tb-DOTAm-Phen]^3+=10 μM, Eu-DOTA-Phen=10 μM, [PKAc]=1 μM, [amide-blocked KRRWSAP-NH2]=1.5 mM, [ATP]=1 mM, [Tris]=10 mM, [Brij-35]=0.05%, [MgCl2]=50 mM, [EGTA]=5 mM, [DTT]=2 mM, pH 7.0, T=37° C., excitation at 346 nm, time delay=0.1 ms. Reaction time: 0-6 hours.
The ability of the two lanthanide probes to monitor enzymatic reactions involving ATP or GTP directly and continuously was evaluated with PKAc, the catalytic domain of protein kinase A. PKAc is a serine-threonine protein kinase that is actively studied as a biological target in cancer therapy (Naviglio et al., Expert Opin. Ther. Targets, 2009, 13, 83-92). […] Phosphorylation of the substrate and conversion of ATP to ADP takes place only when all components are present in the buffer. […] [Tb-DOTAm-Phen]^3+ and Eu-DOTA-Phen are thus able to directly monitor kinases' activities by time-gated luminescence spectroscopy. […] It should be noted, however, that these probes are not intended for use in cells as the presence of more than two purine nucleotides would make the results hard to interpret.

[10] = system: GTP; assay: Stern-Volmer time-delayed luminescence quenching titration with GTP; assay type: binding; conditions: for Stern-Volmer constant KSV with GTP: excitation 346 nm, time-delay 0.1 ms, probe 10 μM, water, Tris 10 mM, pH 7.0, 20° C., n=3, emission integrated 450-650 nm (Tb) or 550-750 (Eu)
Experimental: as §1

[11] = system: AMP; assay: Stern-Volmer time-delayed luminescence quenching titration with AMP; assay type: binding; conditions: for Stern-Volmer constant KSV with AMP: excitation 346 nm, time-delay 0.1 ms, probe 10 μM, water, Tris 10 mM, pH 7.0, 20° C., n=3, emission integrated 450-650 nm (Tb) or 550-750 (Eu)
Experimental: as §1

[12] = system: ATP; assay: Stern-Volmer time-delayed luminescence quenching titration with ATP; assay type: binding; conditions: for Stern-Volmer constant KSV with ATP: excitation 346 nm, time-delay 0.1 ms, probe 10 μM, water, Tris 10 mM, pH 7.0, 20° C., n=3, emission integrated 450-650 nm (Tb) or 550-750 (Eu); for log KSV for ATP: from Stern-Volmer constants of Table 2
Experimental: as §1

[13] = system: ADP; assay: Stern-Volmer time-delayed luminescence quenching titration with ADP; assay type: binding; conditions: for Stern-Volmer constant KSV with ADP: excitation 346 nm, time-delay 0.1 ms, probe 10 μM, water, Tris 10 mM, pH 7.0, 20° C., n=3, emission integrated 450-650 nm (Tb) or 550-750 (Eu)
Experimental: as §1

[14] = system: GDP; assay: Stern-Volmer time-delayed luminescence quenching titration with GDP; assay type: binding; conditions: excitation 346 nm, time-delay 0.1 ms, probe 10 μM, water, Tris 10 mM, pH 7.0, 20° C., n=3, emission integrated 450-650 nm (Tb) or 550-750 (Eu)
Experimental: as §1

Compound | Stern-Volmer constant KSV with GMP [2] | Stern-Volmer constant KSV with UDP [3] | Stern-Volmer constant KSV with CDP [4] | Stern-Volmer constant KSV with CMP [5] | Stern-Volmer constant KSV with UTP [6] | Stern-Volmer constant KSV with CTP [7] | Stern-Volmer constant KSV with UMP [8] | time-gated luminescence as the PKAc reaction proceeds (ADP:ATP ratio increases) [9] | Stern-Volmer constant KSV with GTP [10] | Stern-Volmer constant KSV with AMP [11] | Stern-Volmer constant KSV with ATP [12] | log KSV for ATP [12] | Stern-Volmer constant KSV with ADP [13] | Stern-Volmer constant KSV with GDP [14] | further results
O=C([O-])CN1CCN(CC(=O)[O-])CCN(CC(=O)O)CCN(CC(=O)[O-])CC1.[Gd+3] [Gd-DOTA] |  |  |  |  |  |  |  |  |  |  |  |  |  |  | log Ka with biphosphate [1]: 2.2
Eu-DOTA-Phen | 0.118(2) | 0.002(2) | 0.008(1) | 0.008(1) | 0.001(2) | 0.006(1) | 0.007(2) | remains constant | 0.099(1) | 0.053(1) | 0.065(1) | −1.2 | 0.058(1) | 0.164(3) | 
Tb-PhenDOTAm | 2.84 ± 0.01 | 0.065 ± 0.007 | 0.149 ± 0.009 | 0.139 ± 0.006 | 0.047 ± 0.002 | 0.103 ± 0.007 | 0.070 ± 0.004 | increases | 33.1 ± 0.1 | 0.397 ± 0.005 | 1.28 ± 0.05 | 0.11 | 0.85 ± 0.02 | 9.84 ± 0.05 | Stern-Volmer constant KSV with GMP ([2]; listed as [Tb-DOTAm-Phen]^3+): 2.84(1); Stern-Volmer constant KSV with UDP ([3]; listed as [Tb-DOTAm-Phen]^3+): 0.065(7); Stern-Volmer constant KSV with CDP ([4]; listed as [Tb-DOTAm-Phen]^3+): 0.149(9); Stern-Volmer constant KSV with CMP ([5]; listed as [Tb-DOTAm-Phen]^3+): 0.139(6); Stern-Volmer constant KSV with UTP ([6]; listed as [Tb-DOTAm-Phen]^3+): 0.047(2); Stern-Volmer constant KSV with CTP ([7]; listed as [Tb-DOTAm-Phen]^3+): 0.103(7); Stern-Volmer constant KSV with UMP ([8]; listed as [Tb-DOTAm-Phen]^3+): 0.070(4); increase of apparent binding affinity for GTP over that of the neutral complex (12) ([10]; +3 charged probe (1) versus neutral complex (12)): 300 fold; Stern-Volmer constant KSV with GTP ([10]; listed as [Tb-DOTAm-Phen]^3+): 33.1(1); phosphorescence quenched by AMP ([11]; 1 mM AMP): 31.0%; Stern-Volmer constant KSV with AMP ([11]; listed as [Tb-DOTAm-Phen]^3+): 0.397(5); time-gated luminescence quenched by ATP ([12]; 1 mM ATP): 59.7%; Stern-Volmer constant KSV with ATP ([12]; listed as [Tb-DOTAm-Phen]^3+): 1.28(5); phosphorescence quenched by ADP ([13]; 1 mM ADP): 47.4%; Stern-Volmer constant KSV with ADP ([13]; listed as [Tb-DOTAm-Phen]^3+): 0.85(2); Stern-Volmer constant KSV with GDP ([14]; listed as [Tb-DOTAm-Phen]^3+): 9.84(5)

— patent publication US9194802B2, “Luminescent probes having a phenanthridinyl antenna, and methods of use” (REGENTS OF THE UNIVERSITY OF MINNESOTA, priority 2012, dated 2015)
